# According to patent US20020137929A1, “1 - (3-heterocyclylphenyl) isothiourea, -isourea, -guanidine and -amidine herbicidal agents” (Intellectual Property Department, BASF Aktiengesellschaft, priority 1998, published 2002):
# What was measured:
# [1] = tested on: AMBEL (Ragweed, Common); test: Postemergence herbicidal evaluation; format: in vivo, Ambrosia artemisifolia; conditions: postemergence
# Method in brief: (§1)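 ~2-wk seedlings; postemergence spray, 40 psi; vehicle 1:1 acetone:water + 0.5% Tween 20; rate ≈0.0156–0.500 kg/ha; greenhouse hold; scored 4–5 wk after treatment, 0–9 scale vs control; repeat tests averaged.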
# [2] = tested on: CASOB (Sicklepod); test: Postemergence herbicidal evaluation; format: in vivo, Cassia obtusifolia; conditions: postemergence
# Method in brief: as §1
# [3] = tested on: GALAP (Galium); test: Postemergence herbicidal evaluation; format: in vivo, Galium aparine; conditions: postemergence
# Method in brief: as §1
# [4] = tested on: IPOHE (Morningglory, Ivyleaf); test: Postemergence herbicidal evaluation; format: in vivo, Ipomoea hederacea; conditions: postemergence
# Method in brief: as §1
# [5] = tested on: ABUTH (Velvetleaf); test: Preemergence herbicidal evaluation; format: in vivo, Abutilon theophrasti; conditions: rated 4-5 weeks after treatment
# Method in brief: (§2)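 Preemergence soil application of compound, sprayed in aqueous acetone at rates equivalent to about 0.0156 to 0.500 kg per hectare onto freshly sown cups. Plant response was judged by eye on a 0-9 scale four to five weeks later.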
# [6] = tested on: CASOB (Sicklepod); test: Preemergence herbicidal evaluation; format: in vivo, Cassia obtusifolia; conditions: rated 4-5 weeks after treatment
# Method in brief: as §2
# [7] = tested on: IPOHE (Morningglory, Ivyleaf); test: Preemergence herbicidal evaluation; format: in vivo, Ipomoea hederacea; conditions: rated 4-5 weeks after treatment
# Method in brief: as §2
# [8] = tested on: ECHCG (Barnyardgrass); test: Preemergence herbicidal evaluation; format: in vivo, Echinochloa crus-galli; conditions: rated 4-5 weeks after treatment
# Method in brief: as §2
# [9] = tested on: GLXMAW (Soybean, Williams); test: Preemergence herbicidal evaluation; format: in vivo, Glycine max, (L.) Merr. cv Williams; conditions: rated 4-5 weeks after treatment
# Method in brief: as §2
# [10] = tested on: TRZAWR (Wheat, Winter, cv Riband); test: Preemergence herbicidal evaluation; format: in vivo, Triticum aestivum; conditions: rated 4-5 weeks after treatment
# Method in brief: as §2
# [11] = tested on: ZEAMX (Corn, Field); test: Preemergence herbicidal evaluation; format: in vivo, Zea mays; conditions: rated 4-5 weeks after treatment
# Method in brief: as §2
# [12] = tested on: SAGPY (Arrowhead (Pygmaea)); test: Preemergence weed control under flooded paddy conditions; format: in vivo, Sagittaria pygmaea; conditions: rated 3-4 weeks after treatment
# Method in brief: (§3)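 Herbicidal effect is scored visually on a 0-9 scale against an untreated control, three to four weeks after compounds are pipetted into the flood water (1.5 to 3 cm deep) over seeds planted in silt loam at 0.5 cm depth. Rates: about 0.0313 to 0.500 kg/ha.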
# [13] = tested on: CYPIR (Rice Flatsedge); test: Postemergence weed control under flooded paddy conditions; format: in vivo, Cyperus iria; conditions: postemergence weeds
# Method in brief: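 With weeds 3 to 5 cm tall and rice at the 1.5 to 2.5 leaf stage, containers were flooded and water held 1.5 to 3 cm above soil. Compounds in 50/50 v/v aqueous/acetone went into the flood water at about 0.0313 to 0.500 kg/ha a.i. Effects were visually rated 0–9 against controls after three to four weeks in the greenhouse.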
# [14] = tested on: MOOVA (Monochoria); test: Preemergence weed control under flooded paddy conditions; format: in vivo, Monochoria vaginalis; conditions: rated 3-4 weeks after treatment
# Method in brief: as §3
structure (smiles),measurement,setting,value
"COC(=O)C(Cc1ccc(Cl)cc1)N1C(=O)CSC1=Nc1cc(-n2c(=O)cc(C(F)(F)F)n(C)c2=O)c(F)cc1Cl (racemic) [Compound 77, Methyl α-(p-chlorobenzyl)-2-{{2-chloro-5-[3,6-dihydro-3-methyl-2,6-dioxo-4-(trifluoromethyl)-1(2H)-pyrimidinyl]-4-fluorophenyl}imino}-4-oxo-3-thiazolidineacetate, DL-]",AMBEL herbicidal rating,[1]; rate 0.0158 kg/ha,9.0
same,AMBEL herbicidal rating,[1]; rate 0.0315 kg/ha,9.0
same,AMBEL herbicidal rating,[1]; rate 0.0630 kg/ha,9.0
same,CASOB herbicidal rating,[2]; rate 0.0158 kg/ha,1.0
same,CASOB herbicidal rating,[2]; rate 0.0315 kg/ha,1.0
same,CASOB herbicidal rating,[2]; rate 0.0630 kg/ha,1.0
same,GALAP herbicidal rating,[3]; rate 0.0158 kg/ha,1.0
same,GALAP herbicidal rating,[3]; rate 0.0315 kg/ha,1.0
same,GALAP herbicidal rating,[3]; rate 0.0630 kg/ha,7.0
same,IPOHE herbicidal rating,[4]; rate 0.0158 kg/ha,9.0
same,IPOHE herbicidal rating,[4]; rate 0.0315 kg/ha,9.0
same,IPOHE herbicidal rating,[4]; rate 0.0630 kg/ha,9.0
same,Preemergence herbicidal rating ABUTH,[5]; rate 0.0156 kg/ha,1.0
same,Preemergence herbicidal rating ABUTH,[5]; rate 0.0313 kg/ha,0.0
same,Preemergence herbicidal rating ABUTH,[5]; rate 0.0625 kg/ha,9.0
same,Preemergence herbicidal rating ABUTH,[5]; rate 0.1250 kg/ha,9.0
same,Preemergence herbicidal rating ABUTH,[5]; rate 0.2500 kg/ha,9.0
same,Preemergence herbicidal rating CASOB,[6]; rate 0.0156 kg/ha,0.0
same,Preemergence herbicidal rating CASOB,[6]; rate 0.0313 kg/ha,0.0
same,Preemergence herbicidal rating CASOB,[6]; rate 0.0625 kg/ha,0.0
same,Preemergence herbicidal rating CASOB,[6]; rate 0.1250 kg/ha,0.0
same,Preemergence herbicidal rating CASOB,[6]; rate 0.2500 kg/ha,0.0
same,Preemergence herbicidal rating IPOHE,[7]; rate 0.0156 kg/ha,1.0
same,Preemergence herbicidal rating IPOHE,[7]; rate 0.0313 kg/ha,0.0
same,Preemergence herbicidal rating IPOHE,[7]; rate 0.0625 kg/ha,0.0
same,Preemergence herbicidal rating IPOHE,[7]; rate 0.1250 kg/ha,0.0
same,Preemergence herbicidal rating IPOHE,[7]; rate 0.2500 kg/ha,2.0
same,Preemergence herbicidal rating ECHCG,[8]; rate 0.0156 kg/ha,0.0
same,Preemergence herbicidal rating ECHCG,[8]; rate 0.0313 kg/ha,0.0
same,Preemergence herbicidal rating ECHCG,[8]; rate 0.0625 kg/ha,0.0
same,Preemergence herbicidal rating ECHCG,[8]; rate 0.1250 kg/ha,0.0
same,Preemergence herbicidal rating ECHCG,[8]; rate 0.2500 kg/ha,0.0
same,Preemergence herbicidal rating GLXMAW,[9]; rate 0.0156 kg/ha,0.0
same,Preemergence herbicidal rating GLXMAW,[9]; rate 0.0313 kg/ha,0.0
same,Preemergence herbicidal rating GLXMAW,[9]; rate 0.0625 kg/ha,0.0
same,Preemergence herbicidal rating GLXMAW,[9]; rate 0.1250 kg/ha,0.0
same,Preemergence herbicidal rating GLXMAW,[9]; rate 0.2500 kg/ha,1.0
same,Preemergence herbicidal rating TRZAWR,[10]; rate 0.0156 kg/ha,0.0
same,Preemergence herbicidal rating TRZAWR,[10]; rate 0.0313 kg/ha,0.0
same,Preemergence herbicidal rating TRZAWR,[10]; rate 0.0625 kg/ha,0.0
same,Preemergence herbicidal rating TRZAWR,[10]; rate 0.1250 kg/ha,1.0
same,Preemergence herbicidal rating TRZAWR,[10]; rate 0.2500 kg/ha,0.0
same,Preemergence herbicidal rating ZEAMX,[11]; rate 0.0156 kg/ha,2.0
same,Preemergence herbicidal rating ZEAMX,[11]; rate 0.0313 kg/ha,0.0
same,Preemergence herbicidal rating ZEAMX,[11]; rate 0.0625 kg/ha,0.0
same,Preemergence herbicidal rating ZEAMX,[11]; rate 0.1250 kg/ha,0.0
same,Preemergence herbicidal rating ZEAMX,[11]; rate 0.2500 kg/ha,1.0
same,SAGPY herbicidal effect rating,[12]; 0.0313 kg/ha,0.0
same,SAGPY herbicidal effect rating,[12]; 0.0625 kg/ha,0.0
same,SAGPY herbicidal effect rating,[12]; 0.1250 kg/ha,0.0
same,SAGPY herbicidal effect rating,[12]; 0.2500 kg/ha,0.0
same,Herbicidal rating CYPIR,"[13]; Rate 0.0313 kg/ha, rated 3 to 4 weeks after treatment",0.0
same,Herbicidal rating CYPIR,"[13]; Rate 0.0625 kg/ha, rated 3 to 4 weeks after treatment",0.0
same,Herbicidal rating CYPIR,"[13]; Rate 0.1250 kg/ha, rated 3 to 4 weeks after treatment",0.0
same,Herbicidal rating CYPIR,"[13]; Rate 0.2500 kg/ha, rated 3 to 4 weeks after treatment",0.0
CN1C(=O)CS/C1=N/c1cc(-n2c(=O)cc(C(F)(F)F)n(C)c2=O)c(F)cc1Cl [Compound 7],AMBEL herbicidal rating,[1]; rate 0.0157 kg/ha,5.0
same,AMBEL herbicidal rating,[1]; rate 0.0313 kg/ha,5.0
same,AMBEL herbicidal rating,[1]; rate 0.0625 kg/ha,7.0
same,AMBEL herbicidal rating,[1]; rate 0.1250 kg/ha,9.0
same,CASOB herbicidal rating,[2]; rate 0.0157 kg/ha,4.0
same,CASOB herbicidal rating,[2]; rate 0.0313 kg/ha,5.0
same,CASOB herbicidal rating,[2]; rate 0.0625 kg/ha,5.0
same,CASOB herbicidal rating,[2]; rate 0.1250 kg/ha,7.0
same,GALAP herbicidal rating,[3]; rate 0.0157 kg/ha,3.0
same,GALAP herbicidal rating,[3]; rate 0.0313 kg/ha,4.0
same,GALAP herbicidal rating,[3]; rate 0.0625 kg/ha,5.0
same,GALAP herbicidal rating,[3]; rate 0.1250 kg/ha,9.0
same,ABUTH preemergence herbicidal rating,[5]; rate 0.0157 kg/ha,9.0
same,ABUTH preemergence herbicidal rating,[5]; rate 0.0313 kg/ha,9.0
same,ABUTH preemergence herbicidal rating,[5]; rate 0.0625 kg/ha,9.0
same,ABUTH preemergence herbicidal rating,[5]; rate 0.1250 kg/ha,9.0
same,ABUTH preemergence herbicidal rating,[5]; rate 0.2500 kg/ha,9.0
same,CASOB preemergence herbicidal rating,[6]; rate 0.0157 kg/ha,9.0
same,CASOB preemergence herbicidal rating,[6]; rate 0.0313 kg/ha,9.0
same,CASOB preemergence herbicidal rating,[6]; rate 0.0625 kg/ha,9.0
same,CASOB preemergence herbicidal rating,[6]; rate 0.1250 kg/ha,8.0
same,CASOB preemergence herbicidal rating,[6]; rate 0.2500 kg/ha,9.0
same,IPOHE preemergence herbicidal rating,[7]; rate 0.0313 kg/ha,4.0
same,IPOHE preemergence herbicidal rating,[7]; rate 0.0625 kg/ha,4.0
same,IPOHE preemergence herbicidal rating,[7]; rate 0.1250 kg/ha,9.0
same,IPOHE preemergence herbicidal rating,[7]; rate 0.2500 kg/ha,9.0
same,ECHCG preemergence herbicidal rating,[8]; rate 0.0157 kg/ha,5.0
same,ECHCG preemergence herbicidal rating,[8]; rate 0.0313 kg/ha,9.0
same,ECHCG preemergence herbicidal rating,[8]; rate 0.0625 kg/ha,9.0
same,ECHCG preemergence herbicidal rating,[8]; rate 0.1250 kg/ha,9.0
same,ECHCG preemergence herbicidal rating,[8]; rate 0.2500 kg/ha,9.0
same,GLXMAW preemergence herbicidal rating,[9]; rate 0.0157 kg/ha,5.0
same,GLXMAW preemergence herbicidal rating,[9]; rate 0.0313 kg/ha,6.5
same,GLXMAW preemergence herbicidal rating,[9]; rate 0.0625 kg/ha,7.5
same,GLXMAW preemergence herbicidal rating,[9]; rate 0.1250 kg/ha,8.0
same,GLXMAW preemergence herbicidal rating,[9]; rate 0.2500 kg/ha,8.5
same,TRZAWR preemergence herbicidal rating,[10]; rate 0.0157 kg/ha,5.0
same,TRZAWR preemergence herbicidal rating,[10]; rate 0.0313 kg/ha,6.5
same,TRZAWR preemergence herbicidal rating,[10]; rate 0.0625 kg/ha,7.5
same,TRZAWR preemergence herbicidal rating,[10]; rate 0.1250 kg/ha,8.5
same,TRZAWR preemergence herbicidal rating,[10]; rate 0.2500 kg/ha,8.5
same,ZEAMX preemergence herbicidal rating,[11]; rate 0.0157 kg/ha,7.0
same,ZEAMX preemergence herbicidal rating,[11]; rate 0.0313 kg/ha,8.0
same,ZEAMX preemergence herbicidal rating,[11]; rate 0.0625 kg/ha,8.5
same,ZEAMX preemergence herbicidal rating,[11]; rate 0.1250 kg/ha,8.5
same,ZEAMX preemergence herbicidal rating,[11]; rate 0.2500 kg/ha,9.0
same,Herbicidal rating MOOVA,[14]; 0.0313 kg/ha,9.0
same,Herbicidal rating MOOVA,[14]; 0.0625 kg/ha,9.0
same,Herbicidal rating MOOVA,[14]; 0.1250 kg/ha,9.0
same,Herbicidal rating MOOVA,[14]; 0.2500 kg/ha,9.0
same,Herbicidal rating SAGPY,[12]; 0.0313 kg/ha,2.0
same,Herbicidal rating SAGPY,[12]; 0.0625 kg/ha,4.0
same,Herbicidal rating SAGPY,[12]; 0.1250 kg/ha,8.0
same,Herbicidal rating SAGPY,[12]; 0.2500 kg/ha,9.0
same,Herbicidal rating CYPIR,"[13]; rate 0.0313 kg/ha, 3-4 weeks after treatment",8.5
same,Herbicidal rating CYPIR,"[13]; rate 0.0625 kg/ha, 3-4 weeks after treatment",9.0
same,Herbicidal rating CYPIR,"[13]; rate 0.1250 kg/ha, 3-4 weeks after treatment",9.0
same,Herbicidal rating CYPIR,"[13]; rate 0.2500 kg/ha, 3-4 weeks after treatment",9.0
